Laboratory results from ChEMBL document CHEMBL3763135, “Synthesis and evaluation of thiophene-based guanylhydrazones (iminoguanidines) efficient against panel of voriconazole-resistant fungal isolates” (Bioorg Med Chem, 2016).
Activity calls are given as the source filed them. No cut-off for these calls is given here.

Key:
Candida albicans [1] = assay: Antifungal activity against Candida albicans CA5 by broth dilution method; type: functional
Danio rerio [2] = organism: Danio rerio; assay: Toxicity against zebrafish embryo assessed as growth retardation at 10 ug/ml measured at 96 hrs post fertilization by inverted microscopic analysis; type: organism-based; settings: in vivo
Danio rerio [3] = organism: Danio rerio; assay: Toxicity against zebrafish embryo assessed as normal embryos at 5 ug/ml measured at 96 hrs post fertilization by inverted microscopic analysis; type: organism-based; settings: in vivo
Danio rerio [4] = assay: Toxicity against zebrafish embryo assessed as pericardial edema at 5 ug/ml measured at 96 hrs post fertilization by inverted microscopic analysis; type: organism-based; settings: in vivo
Danio rerio [5] = organism: Danio rerio; assay: Toxicity against zebrafish embryo assessed as effect on tail tip at 5 ug/ml measured at 96 hrs post fertilization by inverted microscopic analysis; type: organism-based; settings: in vivo
Danio rerio [6] = organism: Danio rerio; assay: Toxicity against zebrafish embryo assessed as effect on eyes at 10 ug/ml measured at 96 hrs post fertilization by inverted microscopic analysis; type: organism-based; settings: in vivo
Danio rerio [7] = organism: Danio rerio; assay: Toxicity against zebrafish embryo assessed as normal embryos at 25 ug/ml measured at 96 hrs post fertilization by inverted microscopic analysis; type: organism-based; settings: in vivo
Danio rerio [8] = organism: Danio rerio; assay: Toxicity against zebrafish embryo assessed as effect on blood circulation at 10 ug/ml measured at 96 hrs post fertilization by inverted microscopic analysis; type: organism-based; settings: in vivo
Danio rerio [9] = organism: Danio rerio; assay: Toxicity against zebrafish embryo assessed as effect on eyes at 2.5 ug/ml measured at 96 hrs post fertilization by inverted microscopic analysis; type: organism-based; settings: in vivo
Danio rerio [10] = organism: Danio rerio; assay: Toxicity against zebrafish embryo assessed as head malformation at 5 ug/ml measured at 96 hrs post fertilization by inverted microscopic analysis; type: organism-based; settings: in vivo
Candida albicans [11] = assay: Antibiofilm activity against Candida albicans ATCC 10231 assessed as disruption of preformed biofilm after 24 hrs by concanavalin A-FITC-staining based fluorescence microscopic analysis; type: functional
MRC5 = assay: Cytotoxicity against human MRC5 cells after 48 hrs by MTT assay; type: cell-based; settings: MRC5, 48 h
Pichia kudriavzevii [12] = assay: Antifungal activity against Candida krusei ATCC 34135 by broth dilution method; type: functional
Danio rerio [13] = organism: Danio rerio; assay: Toxicity against zebrafish embryo assessed as effect on otoliths at 10 ug/ml measured at 96 hrs post fertilization by inverted microscopic analysis; type: organism-based; settings: in vivo
Danio rerio [14] = organism: Danio rerio; assay: Toxicity against zebrafish embryo assessed as teratogenic embryos at 2.5 ug/ml measured at 96 hrs post fertilization by inverted microscopic analysis; type: organism-based; settings: in vivo
Danio rerio [15] = assay: Toxicity against zebrafish embryo assessed as yolk edema at 10 ug/ml measured at 96 hrs post fertilization by inverted microscopic analysis; type: organism-based; settings: in vivo
Danio rerio [16] = organism: Danio rerio; assay: Toxicity against zebrafish embryo assessed as effect on otoliths at 2.5 ug/ml measured at 96 hrs post fertilization by inverted microscopic analysis; type: organism-based; settings: in vivo
[17] = Toxicity against zebrafish embryo measured at 96 hrs post fertilization by inverted microscopic analysis; type: organism-based, Danio rerio; settings: zebrafish embryos
Danio rerio [18] = organism: Danio rerio; assay: Toxicity against zebrafish embryo assessed as teratogenic embryos at 50 ug/ml measured at 96 hrs post fertilization by inverted microscopic analysis; type: organism-based; settings: in vivo
Danio rerio [19] = organism: Danio rerio; assay: Toxicity against zebrafish embryo assessed as normal embryos at 2.5 ug/ml measured at 96 hrs post fertilization by inverted microscopic analysis; type: organism-based; settings: in vivo
Danio rerio [20] = organism: Danio rerio; assay: Toxicity against zebrafish embryo assessed as head malformation at 2.5 ug/ml measured at 96 hrs post fertilization by inverted microscopic analysis; type: organism-based; settings: in vivo
Candida parapsilosis [21] = assay: Antibiofilm activity against Candida parapsilosis C27 assessed as disruption of preformed biofilm after 24 hrs by concanavalin A-FITC-staining based fluorescence microscopic analysis; type: functional
Danio rerio [22] = organism: Danio rerio; assay: Toxicity against zebrafish embryo assessed as teratogenic embryos at 5 ug/ml measured at 96 hrs post fertilization by inverted microscopic analysis; type: organism-based; settings: in vivo
[23] = Toxicity against zebrafish embryo assessed as dead embryos at 25 ug/ml measured at 96 hrs post fertilization by inverted microscopic analysis; type: organism-based, Danio rerio; settings: read-out: Activity
Danio rerio [24] = organism: Danio rerio; assay: Toxicity against zebrafish embryo assessed as unhatched embryos at 10 ug/ml measured at 96 hrs post fertilization by inverted microscopic analysis; type: organism-based; settings: in vivo
Aspergillus fumigatus = assay: Antifungal activity against Aspergillus fumigatus ATCC 13073 by broth dilution method; type: functional
Danio rerio [25] = assay: Toxicity against zebrafish embryo assessed as pericardial edema at 2.5 ug/ml measured at 96 hrs post fertilization by inverted microscopic analysis; type: organism-based; settings: in vivo
Candida parapsilosis [26] = assay: Antifungal activity against Candida parapsilosis C27 by broth dilution method; type: functional; settings: Lodderomyces parapsilosis
Danio rerio [27] = organism: Danio rerio; assay: Toxicity against zebrafish embryo assessed as skeletal deformities at 2.5 ug/ml measured at 96 hrs post fertilization by inverted microscopic analysis; type: organism-based; settings: in vivo
Candida albicans [28] = assay: Antifungal activity against Candida albicans CA5 assessed as fungal growth at sub-MIC measured after 24 hrs by time-kill dependence-based spectrophotometric analysis relative to DMSO control; type: functional, organism-based
Danio rerio [29] = organism: Danio rerio; assay: Toxicity against zebrafish embryo assessed as head malformation at 10 ug/ml measured at 96 hrs post fertilization by inverted microscopic analysis; type: organism-based; settings: in vivo
[30] = Induction of membrane damage in PC/PS/E liposome assessed as calcein release at MIC after 30 mins by fluorescence-based liposome leakage assay; type: functional
Danio rerio [31] = organism: Danio rerio; assay: Toxicity against zebrafish embryo assessed as teratogenic embryos at 10 ug/ml measured at 96 hrs post fertilization by inverted microscopic analysis; type: organism-based; settings: in vivo
Danio rerio [32] = organism: Danio rerio; assay: Toxicity against zebrafish embryo assessed as effect on blood circulation at 2.5 ug/ml measured at 96 hrs post fertilization by inverted microscopic analysis; type: organism-based; settings: in vivo
Danio rerio [33] = organism: Danio rerio; assay: Toxicity against zebrafish embryo assessed as effect on tail tip at 2.5 ug/ml measured at 96 hrs post fertilization by inverted microscopic analysis; type: organism-based; settings: in vivo
[34] = Toxicity against zebrafish embryo assessed as dead embryos at 50 ug/ml measured at 96 hrs post fertilization by inverted microscopic analysis; type: organism-based, Danio rerio; settings: read-out: Activity
Danio rerio [35] = organism: Danio rerio; assay: Toxicity against zebrafish embryo assessed as normal embryos at 50 ug/ml measured at 96 hrs post fertilization by inverted microscopic analysis; type: organism-based; settings: in vivo
Danio rerio [36] = organism: Danio rerio; assay: Toxicity against zebrafish embryo assessed as skeletal deformities at 5 ug/ml measured at 96 hrs post fertilization by inverted microscopic analysis; type: organism-based; settings: in vivo
Danio rerio [37] = organism: Danio rerio; assay: Toxicity against zebrafish embryo assessed as growth retardation at 2.5 ug/ml measured at 96 hrs post fertilization by inverted microscopic analysis; type: organism-based; settings: in vivo
Danio rerio [38] = assay: Toxicity against zebrafish embryo assessed as yolk edema at 5 ug/ml measured at 96 hrs post fertilization by inverted microscopic analysis; type: organism-based; settings: in vivo
Danio rerio [39] = organism: Danio rerio; assay: Toxicity against zebrafish embryo assessed as effect on blood circulation at 5 ug/ml measured at 96 hrs post fertilization by inverted microscopic analysis; type: organism-based; settings: in vivo
Danio rerio [40] = organism: Danio rerio; assay: Toxicity against zebrafish embryo assessed as growth retardation at 5 ug/ml measured at 96 hrs post fertilization by inverted microscopic analysis; type: organism-based; settings: in vivo
Danio rerio [41] = organism: Danio rerio; assay: Toxicity against zebrafish embryo assessed as effect on notochord at 2.5 ug/ml measured at 96 hrs post fertilization by inverted microscopic analysis; type: organism-based; settings: in vivo
[42] = Toxicity against zebrafish embryo assessed as dead embryos at 5 ug/ml measured at 96 hrs post fertilization by inverted microscopic analysis; type: organism-based, Danio rerio; settings: read-out: Activity
Danio rerio [43] = organism: Danio rerio; assay: Toxicity against zebrafish embryo assessed as effect on otoliths at 5 ug/ml measured at 96 hrs post fertilization by inverted microscopic analysis; type: organism-based; settings: in vivo
Pichia kudriavzevii [44] = assay: Antibiofilm activity against Pichia kudriavzevii ATCC 34135 assessed as disruption of preformed biofilm after 24 hrs by concanavalin A-FITC-staining based fluorescence microscopic analysis; type: functional
[45] = Toxicity against zebrafish embryo assessed as dead embryos at 10 ug/ml measured at 96 hrs post fertilization by inverted microscopic analysis; type: organism-based, Danio rerio; settings: read-out: Activity

## Cl.Cl.N=C(N)N/N=C/c1ccc(-c2ccc(/C=N/NC(=N)N)s2)cc1
Candida albicans [1]
  MIC: 0.5 µg/mL
Danio rerio [2]
  Activity: 0%
Danio rerio [3]
  Activity: 100%
Danio rerio [4]
  Activity: 0%
Danio rerio [5]
  Activity: 0%
Danio rerio [6]
  Activity: 0%
Danio rerio [7]
  Activity: 96.67%
Danio rerio [8]
  Activity: 0%
Danio rerio [9]
  Activity: 0%
Danio rerio [10]
  Activity: 0%
Candida albicans [11]
  MBEC: 250 µg/mL
MRC5
  IC50: 10 µg/mL
Pichia kudriavzevii [12]
  MIC: 25 µg/mL
Danio rerio [13]
  Activity: 0%
Danio rerio [14]
  Activity: 0%
Danio rerio [15]
  Activity: 0%
Danio rerio [16]
  Activity: 0%
[17]
  LC50 at 96 h: > 50 µg/mL
Danio rerio [18]
  Activity: 0%
Danio rerio [19]
  Activity: 100%
Danio rerio [20]
  Activity: 0%
Candida parapsilosis [21]
  MBEC: 500 µg/mL
Danio rerio [22]
  Activity: 0%
[23]
  mortality at 96 h, 25 ug/ml: 3.33%
Danio rerio [24]
  Activity: 0%
Aspergillus fumigatus
  MIC: 25 µg/mL
Danio rerio [25]
  Activity: 0%
Candida parapsilosis [26]
  MIC: 50 µg/mL
Danio rerio [27]
  Activity: 0%
Candida albicans [28]
  Activity: inactive
Danio rerio [29]
  Activity: 0%
[30]
  Activity: 7%
Danio rerio [31]
  Activity: 0%
Danio rerio [32]
  Activity: 0%
Danio rerio [33]
  Activity: 0%
[34]
  mortality at 96 h, 50 ug/ml: 3.33%
Danio rerio [35]
  Activity: 96.67%
Danio rerio [36]
  Activity: 0%
Danio rerio [37]
  Activity: 0%
Danio rerio [38]
  Activity: 0%
Danio rerio [39]
  Activity: 0%
Danio rerio [40]
  Activity: 0%
Danio rerio [41]
  Activity: 0%
[42]
  mortality at 96 h, 5 ug/ml: 0%
Danio rerio [43]
  Activity: 0%
Pichia kudriavzevii [44]
  MBEC: 500 µg/mL
[45]
  mortality at 96 h, 10 ug/ml: 0%

## Cl.N=C(N)N/N=C/c1ccc(-c2ccc(Br)cc2)s1
Candida albicans [1]
  MIC: 1.56 µg/mL
Danio rerio [2]
  Activity: 0%
Danio rerio [3]
  Activity: 80%
Danio rerio [4]
  Activity: 11.11%
Danio rerio [5]
  Activity: 0%
Danio rerio [6]
  Activity: 0%
Danio rerio [7]
  Activity: 0%
Danio rerio [8]
  Activity: 0%
Danio rerio [9]
  Activity: 0%
Danio rerio [10]
  Activity: 0%
Candida albicans [11]
  MBEC: 125 µg/mL
MRC5
  IC50: 2 µg/mL
Pichia kudriavzevii [12]
  MIC: 1.56 µg/mL
Danio rerio [13]
  Activity: 0%
Danio rerio [14]
  Activity: 0%
Danio rerio [15]
  Activity: 0%
Danio rerio [16]
  Activity: 0%
[17]
  LC50 at 96 h: 14.1 µg/mL
Danio rerio [18]
  Activity: 0%
Danio rerio [19]
  Activity: 100%
Danio rerio [20]
  Activity: 0%
Candida parapsilosis [21]
  MBEC: 125 µg/mL
Danio rerio [22]
  Activity: 10%
[23]
  mortality at 96 h, 25 ug/ml: 73.3%
Danio rerio [24]
  Activity: 0%
Aspergillus fumigatus
  MIC: 6.25 µg/mL
Danio rerio [25]
  Activity: 0%
Candida parapsilosis [26]
  MIC: 3.9 µg/mL
Danio rerio [27]
  Activity: 0%
Candida albicans [28]
  Activity: inactive
Danio rerio [29]
  Activity: 0%
[30]
  Activity: 7%
Danio rerio [31]
  Activity: 23.33%
Danio rerio [32]
  Activity: 0%
Danio rerio [33]
  Activity: 0%
[34]
  mortality at 96 h, 50 ug/ml: 100%
Danio rerio [35]
  Activity: 0%
Danio rerio [36]
  Activity: 0%
Danio rerio [37]
  Activity: 0%
Danio rerio [38]
  Activity: 0%
Danio rerio [39]
  Activity: 0%
Danio rerio [40]
  Activity: 0%
Danio rerio [41]
  Activity: 0%
[42]
  mortality at 96 h, 5 ug/ml: 10%
Danio rerio [43]
  Activity: 0%
Pichia kudriavzevii [44]
  MBEC: 125 µg/mL
[45]
  mortality at 96 h, 10 ug/ml: 30%
